Results taken from patent US6265617A, “Process for the preparation of 3,5,5-trimethylcyclohexa-3-en-1-one (β-isophorone) by isomerization of 3,5,5- trimethylcyclohexa-2-en-1-one (α-isophorone)” (Degussa-Huls Aktiengesellschaft, priority 1998, dated 2001).

Assay: Catalyst activity in liquid-phase isomerization of α-isophorone to β-isophorone
Conditions: for Rate of formation of β-IP: boiling point, normal pressure, 25 vol.% withdrawal
Excerpt: The apparatus for carrying out the isomerization consists of a mushroom-shaped heater, an isomerization flask with attached distillation column, through which a primary mixture composed of α-IP and β-IP is withdrawn, and a pump for recirculating the unreacted α-isophorone left after the purifying distillation of β-IP. […] The suspension is heated to boiling point at normal pressure and the quantity of the α-IP delivered by a Telab pump is coordinated with the quantity of the distillate withdrawn.
The primary distillate obtained is conveyed to a distillation column operating at a partial vacuum of 5 mbar to 100 mbar. […] The bottom product consisting of unreacted α-isophorone is returned to the isomerization reactor.
(§1) Technical sodium hydroxide in various concentrations is stirred into α-IP in the apparatus already described above. With the identical continuous procedure (see Example 1), at the top of the isomerization unit a withdrawal rate of 25 vol.% of a primary distillate is established, based on the quantity of isomerization and the reflux ratio.
as §1, with “potassium carbonate” for “sodium hydroxide”
Various catalysts containing alkali-metal cations are compared with regard to their catalytic activity during the isomerization under conditions corresponding to those in the previous Examples.
Various alkali-metal bases and alkaline-earth bases used as catalysts are compared with regard to their catalytic activity during the isomerization under conditions corresponding to those in the previous Examples.
Various catalysts containing alkali-metal cations and the elements are compared with regard to their catalytic activity during the isomerization under conditions corresponding to those in the previous Examples.

[1] = 2 × 10^-2 mol.% catalyst per mol α-IP
[2] = 0.2 mmol K2CO3 for 1 mol α-IP, illustrative calculation
[3] = 2 × 10^-0 mol.% catalyst per mol α-IP
[4] = 2 × 10^-1 mol.% catalyst per mol α-IP

| SMILES | Rate of formation of β-IP [1] | further results |
| --- | --- | --- |
| [Ca+2].[OH-].[OH-] [Ca(OH)2] | 41.1 g β-IP/h/liter α-IP |  |
| O=C(O)O [K2 CO3, potassium carbonate] | 73.8 g β-IP/h/liter α-IP | improved space-time yield YR-Z based on the volume of the educt solution used: 80 g β-IP/h per kg α-IP; conversion, β-isophorone per kg of catalyst used and per hour [2]: approximately 422.15 kg; β-IP formation [2]: 74 g β-IP/h/liter; β-IP formation per kg solution [2]: 80.43 g β-IP/h/kg solution; Rate of formation of β-IP [3]: 68.8 g β-IP/h/liter α-IP; Rate of formation of β-IP [4]: 76.4 g β-IP/h/liter α-IP |
| O=C(O)O [KHCO3] | 64.4 g β-IP/h/liter α-IP |  |
| [K+].[OH-] [KOH] | 66.9 g β-IP/h/liter α-IP |  |
| O=C(O)O [Li2 CO3] | 48.3 g β-IP/h/liter α-IP |  |
| [AlH4-].[Li+] [LiAIH4] | 43.3 g β-IP/h/liter α-IP |  |
| [BH4-].[Li+] [LiBH4] | 46.1 g β-IP/h/liter α-IP |  |
| [Li+].[OH-] [LiOH] | 61.3 g β-IP/h/liter α-IP |  |
| [Mg+2].[OH-].[OH-] [Mg(OH)2] | 8.2 g β-IP/h/liter α-IP | Rate of formation of β-IP [4]: 9.3 g β-IP/h/liter α-IP |
| O=C(O)O [Na2 CO3, sodium carbonate] | 47.4 g β-IP/h/liter α-IP | calculated yield based on the quantity of catalyst used, Yβ-IP (0.2 mol.% catalyst, continuous operation): 229.7 kg β-IP/h/kgcat.; space-time yield (per hour and quantity of catalyst used) Y (1 mol.% catalyst): 15.357 kg β-IP/h/kg catalyst; space-time yield YR-Z based on α-IP used (1 mol.% catalyst): 0.086 kg β-IP/h/liter; Rate of formation of β-IP [3]: 72 g β-IP/h/liter α-IP |
| CC(=O)O [Na(CH3 CO2)] | 49.2 g β-IP/h/liter α-IP |  |
| CO [Na(OMe)] | 46.9 g β-IP/h/liter α-IP |  |
| O=C(O)O [NaHCO3] | 55.1 g β-IP/h/liter α-IP |  |
| [H-].[Na+] [NaH] | 58.6 g β-IP/h/liter α-IP |  |
| [NH2-].[Na+] [NaNH2, sodium amide] | 49.6 g β-IP/h/liter α-IP |  |
| [Na+].[OH-] [NaOH, sodium hydroxide] | 54.6 g β-IP/h/liter α-IP | Rate of formation of β-IP [4]: 79.5 g β-IP/h/liter α-IP |
| [Na] [Na] | 53.7 g β-IP/h/liter α-IP |  |
| O=S(=O)([O-])O.[K+] [kHSO4] | 44.7 g β-IP/h/liter α-IP |  |
